Laboratory results: patent publication US9382243B2, “Azabenzimidazole tetrahydropyran derivatives” (Merck Sharp & Dohme Corp., priority 2012, dated 2016)

Assays:
[1] = system: ob/ob and db/db mice; settings: following 8 weeks of administration; cited from earlier work
[2] = molecular target: recombinant human AMPK complex 1 (containing α1β1γ1) (Homo sapiens, UniProt Q13131+Q9Y478); assay: AMPKSAMSF in vitro AMPK activation assay, complex 1; type: biochemical; settings: for Emax: 10-point titration, expressed as % maximum AMP activation; for EC50: inflection point reflecting 50% of the maximum activation, table for human AMPK Complex 1
Chain of recombinant human AMPK complex 1 (containing α1β1γ1) (Q13131 whole entry): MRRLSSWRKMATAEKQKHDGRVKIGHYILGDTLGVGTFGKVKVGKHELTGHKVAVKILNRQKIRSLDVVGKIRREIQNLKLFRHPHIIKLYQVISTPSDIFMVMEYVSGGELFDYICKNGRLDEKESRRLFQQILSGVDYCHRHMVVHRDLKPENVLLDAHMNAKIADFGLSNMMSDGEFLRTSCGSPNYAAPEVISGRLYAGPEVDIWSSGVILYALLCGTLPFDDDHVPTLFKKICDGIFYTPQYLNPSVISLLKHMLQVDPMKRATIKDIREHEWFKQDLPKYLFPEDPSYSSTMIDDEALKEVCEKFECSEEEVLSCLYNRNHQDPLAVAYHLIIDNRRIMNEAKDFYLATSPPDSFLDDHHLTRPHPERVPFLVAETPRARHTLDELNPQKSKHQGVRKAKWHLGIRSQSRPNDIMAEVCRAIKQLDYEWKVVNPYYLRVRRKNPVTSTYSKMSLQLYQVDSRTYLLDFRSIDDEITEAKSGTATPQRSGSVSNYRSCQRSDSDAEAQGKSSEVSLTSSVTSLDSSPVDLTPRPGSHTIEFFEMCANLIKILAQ
Chain of recombinant human AMPK complex 1 (containing α1β1γ1) (Q9Y478 whole entry): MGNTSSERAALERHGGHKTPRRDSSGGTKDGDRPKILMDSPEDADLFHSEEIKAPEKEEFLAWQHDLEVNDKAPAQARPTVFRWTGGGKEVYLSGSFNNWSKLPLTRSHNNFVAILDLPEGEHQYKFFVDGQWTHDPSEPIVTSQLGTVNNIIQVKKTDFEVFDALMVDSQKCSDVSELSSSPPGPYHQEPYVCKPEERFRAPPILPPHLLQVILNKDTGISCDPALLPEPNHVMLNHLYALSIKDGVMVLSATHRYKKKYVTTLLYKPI
Chain of recombinant human AMPK complex 1 (containing α1β1γ1) (P54619 whole entry partner): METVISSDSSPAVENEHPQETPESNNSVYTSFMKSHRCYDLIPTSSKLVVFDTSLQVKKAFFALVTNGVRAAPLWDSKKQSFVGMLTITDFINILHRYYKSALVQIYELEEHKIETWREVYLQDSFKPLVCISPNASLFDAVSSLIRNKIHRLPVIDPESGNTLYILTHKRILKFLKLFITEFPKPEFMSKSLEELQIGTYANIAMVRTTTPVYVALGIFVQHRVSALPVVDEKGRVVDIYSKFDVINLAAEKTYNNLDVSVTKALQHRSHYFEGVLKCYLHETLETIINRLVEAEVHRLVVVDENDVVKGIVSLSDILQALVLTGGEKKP
Description: The recombinant human AMPK complex 1 (containing α1β1γ1) or AMPK complex 7 (containing α2β1γ1) was obtained from baculovirus expression system. Recombinant viruses were generated by cotransfection of AMPK/pBacPak9 clones with Baculogold baculovirus DNA (Pharmingen) in spodoptera frugiperda 21 cells according to the manufacturer's instructions. Each round of virus amplification was performed for 5 days in Grace's medium containing 10% serum. Virus that had been subjected to three rounds of amplification was used for all protein production procedures. To express the AMPK complex, sf21 cells were adapted to serum free medium (SF900 II, Invitrogen) by sequential dilution from serum containing stocks into SF900II medium and maintained in shaker flasks at 90 rpm at 27° C. The recombinant AMPK enzyme complex was produced by triple infection, one recombinant virus for each of the subunits, in sf21 cells under serum free conditions. Cells were infected in log phase, 1×10^6 cells/ml, at a multiplicity of infection of ˜5. Cells were harvested by centrifugation at 10,000×g for 15 minutes after 72 hours of infection with viruses. The insect cell pellet from 2 liters of culture was resuspended in 50 ml lysis buffer (20 mM Tris-HCl, 50 mM NaCl, 50 mM NaF, 30 mM Na PPi, 0.25 M sucrose, 10 mM ZnCl2, 2 mM DTT, 0.4 mg/ml digitonin) and subjected to two cycles of freeze-thaw lysis in a dry-ice ethanol bath. Insoluble material was removed by centrifugation at 10,000×g and the supernatant was fractionated with use of polyethylene glycol (PEG). The protein fraction precipitating between 2.5 and 6% PEG was used for further purification using a Blue-Sepharose step (Zhou et al, J. Clin. Invest. 108, 1167-1174, 2001).
The in vitro AMPK activation assay is performed in a volume of 30 μl in a 384-well plate. Enzyme reactions were assembled in the microtiter plate by adding 15 μl of 2× enzyme in assay buffer (20 mM HEPES, pH 7.3, 5 mM MgCl2, 3 mM DTT, 0.01% Brij 35 and CamK Kinase, to activate AMPK) to wells which contained either DMSO or compound. The reaction was initiated with the addition of 15 μl 2× substrate mixture containing 200 μM ATP, and 3.0 μM fluorescently labeled SAMS (5-FAM-HMRSAMSGLHLVKRR-COOH) in assay buffer. After 45-minute incubation at 25° C., the reaction was stopped by the addition of 70 μl stop buffer (100 mM HEPES, pH 7.3, 40 mM EDTA, 0.015% Brij 35). Phosphorylated 5-FAM SAMS product is assessed using a Caliper EZ Reader LabChip microfluidics reader. Product conversion is determined by calculating the peak heights of the substrate and product and reporting the product/(product+substrate) peak ratio. The 10-point titration data were expressed as % maximum AMP activation. The results were plotted using 4 parameter fit and the inflection point reflecting 50% of the maximum activation was reported as the EC50.

## NC(=O)c1ncn([C@@H]2O[C@H](CO)[C@@H](O)[C@H]2O)c1N [AICAR]
[1]
  blood glucose reduction: 35%

## CC(CO)Oc1ccc(-c2nc3nc(O[C@H]4CO[C@H](CO)[C@@H](O)C4)[nH]c3cc2Cl)cc1 (stereo partly drawn) [Example 1, (2R,3S,5R)-5-((6-chloro-5-(4-((1-hydroxypropan-2-yl)oxy)phenyl)-1H-imidazo[4,5-b]pyridin-2-yl)oxy)-2-(hydroxymethyl)tetrahydro-2H-pyran-3-ol]
[2]
  Emax: 574%
  EC50: 0.128 µM

## OC[C@H]1OC[C@H](Oc2nc3nc(-c4ccc(N5CC[C@@H](O)C5)cc4)c(Cl)cc3[nH]2)C[C@@H]1O [Example 34]
[2]
  Emax: 367%
  EC50: 0.019 µM

## OC[C@H]1OC[C@H](Oc2nc3nc(-c4ccc(N5CC[C@@H](F)C5)cc4)c(Cl)cc3[nH]2)C[C@@H]1O [Example 35]
[2]
  Emax: 489%
  EC50: 0.018 µM

## OC[C@H]1OC[C@H](Oc2nc3nc(-c4ccc(N5CC[C@H](F)C5)cc4)c(Cl)cc3[nH]2)C[C@@H]1O [Example 37]
[2]
  Emax: 473%
  EC50: 0.022 µM

## CC(C)(O)c1ccc(-c2ccc(-c3nc4nc(O[C@H]5CO[C@H](CO)[C@@H](O)C5)[nH]c4cc3Cl)cc2)cc1 [Example 39, (2R,3 S,5R)-5-((6-chloro-5-(4′-(2-hydroxypropan-2-yl)-[1,1′-biphenyl]-4-yl)-1H-imidazo[4,5-b]pyridin-2-yl)oxy)-2-(hydroxymethyl)tetrahydro-2H-pyran-3-ol]
[2]
  Emax: 379%
  EC50: 0.004 µM

## OC[C@H]1OC[C@H](Oc2nc3nc(-c4ccc(-c5ccc(-n6cccn6)cc5)cc4)c(Cl)cc3[nH]2)C[C@@H]1O [Example 45]
[2]
  Emax: 417%
  EC50: 0.003 µM

## OC[C@H]1OC[C@H](Oc2nc3nc(-c4ccc(-c5ccc(-c6ccn[nH]6)cc5)cc4)c(Cl)cc3[nH]2)C[C@@H]1O [Example 46]
[2]
  Emax: 619%
  EC50: 0.015 µM

## OC[C@H]1OC[C@H](Oc2nc3nc(-c4ccc(-c5ccc(-n6nccn6)cc5)cc4)c(Cl)cc3[nH]2)C[C@@H]1O [Example 47]
[2]
  Emax: 590%
  EC50: 0.025 µM

## OC[C@H]1OC[C@H](Oc2nc3nc(-c4ccc(-c5ccc(-n6ccnn6)cc5)cc4)c(Cl)cc3[nH]2)C[C@@H]1O [Example 48]
[2]
  Emax: 615%
  EC50: 0.002 µM

## NC(c1ccc(-c2ccc(-c3nc4nc(O[C@H]5CO[C@H](CO)[C@@H](O)C5)[nH]c4cc3Cl)cc2)cc1)C(F)(F)F (stereo partly drawn) [Example 49, (2R,3 S,5R)-5-((5-(4′-(1-amino-2,2,2-trifluoroethyl)-[1,1′-biphenyl]-4-yl)-6-chloro-1H-imidazo[4,5-b]pyridin-2-yl)oxy)-2-(hydroxymethyl)tetrahydro-2H-pyran-3-ol]
[2]
  Emax: 464%
  EC50: 0.009 µM

## O=S(=O)(CC1COC1)c1ccc(-c2ccc(-c3nc4nc(O[C@H]5CO[C@H](CO)[C@@H](O)C5)[nH]c4cc3Cl)cc2)cc1 [Example 54]
[2]
  Emax: 767%
  EC50: 0.009 µM

## O=S(=O)(c1ccc(-c2ccc(-c3nc4nc(O[C@H]5CO[C@H](CO)[C@@H](O)C5)[nH]c4cc3Cl)cc2)cc1)C1COC1 [Example 55]
[2]
  Emax: 752%
  EC50: 0.008 µM

## NS(=O)(=O)c1ccc(-c2ccc(-c3nc4nc(O[C@H]5CO[C@H](CO)[C@@H](O)C5)[nH]c4cc3Cl)cc2)cc1 [Example 56]
[2]
  Emax: 392%
  EC50: 0.011 µM

## O=C(c1ccc(-c2ccc(-c3nc4nc(O[C@H]5CO[C@H](CO)[C@@H](O)C5)[nH]c4cc3Cl)cc2)cc1)N1CC[C@@H](O)C1 [Example 61, (4′-(6-chloro-2-(((3R,5 S,6R)-5-hydroxy-6-(hydroxymethyl)tetrahydro-2H-pyran-3-yl)oxy)-1H-imidazo[4,5-b]pyridin-5-yl)-[1,1′-biphenyl]-4-yl)((R)-3-hydroxypyrrolidin-1-yl)methanone]
[2]
  Emax: 568%
  EC50: 0.036 µM

## OC[C@H]1OC[C@H](Oc2nc3nc(-c4ccc(-c5ccccc5)cc4)c(Cl)cc3[nH]2)[C@@H](O)[C@@H]1O [Example 62, (2R,3 S,4S,5 S)-5-((5-([1,1′-biphenyl]-4-yl)-6-chloro-1H-imidazo[4,5-b]pyridin-2-yl)oxy)-2-(hydroxymethyl)tetrahydro-2H-pyran-3,4-diol]
[2]
  Emax: 545%
  EC50: 0.017 µM

## CC(C)(O)c1ccc(-c2ccc(-c3nc4nc(O[C@H]5CO[C@H](CO)[C@@H](O)[C@@H]5O)[nH]c4cc3Cl)cc2)cc1 [Example 66]
[2]
  Emax: 410%
  EC50: 0.013 µM

## CS(=O)(=O)c1ccc(-c2ccc(-c3nc4nc(O[C@H]5CO[C@H](CO)[C@@H](O)[C@@H]5O)[nH]c4cc3Cl)cc2)cc1 [Example 67]
[2]
  Emax: 418%
  EC50: 0.003 µM

## O=C(c1ccc(-c2ccc(-c3nc4nc(O[C@H]5CO[C@H](CO)[C@@H](O)[C@@H]5O)[nH]c4cc3Cl)cc2)cc1)N1CCC(O)CC1 [Example 68]
[2]
  Emax: 419%
  EC50: 0.006 µM

## CC(C)(O)[C@H]1OC[C@H](Oc2nc3cc(Cl)c(-c4ccc(-c5ccccc5)cc4)nc3[nH]2)C[C@@H]1O [Example 70, (2S,3 S,5R)-5-((5-([1,1′-biphenyl]-4-yl)-6-chloro-1H-imidazo[4,5-b]pyridin-2-yl)oxy)-2-(2-hydroxypropan-2-yl)tetrahydro-2H-pyran-3-ol]
[2]
  Emax: 417%
  EC50: 0.031 µM

## CNC(=O)c1ccc(-c2ccc(-c3nc4nc(O[C@H]5CO[C@H](CO)[C@@H](O)C5)[nH]c4cc3Cl)cc2)cc1 [Example 71, 4′-(6-chloro-2-(((3R,5 S,6R)-5-hydroxy-6-(hydroxymethyl)tetrahydro-2H-pyran-3-yl)oxy)-1H-imidazo[4,5-b]pyridin-5-yl)-N-methyl-[1,1′-biphenyl]-4-carboxamide]
[2]
  Emax: 443%
  EC50: 0.006 µM

## CC1(O)CCN(C(=O)c2ccc(-c3ccc(-c4nc5nc(O[C@H]6CO[C@H](CO)[C@@H](O)C6)[nH]c5cc4Cl)cc3)cc2)CC1 [Example 72]
[2]
  Emax: 504%
  EC50: 0.008 µM

## O=C(c1ccc(-c2ccc(-c3nc4nc(O[C@H]5CO[C@H](CO)[C@@H](O)C5)[nH]c4cc3Cl)cc2)cc1)N1CCC(O)(C(F)(F)F)CC1 [Example 73]
[2]
  Emax: 249%
  EC50: 0.008 µM

## COC(=O)Nc1ccc(-c2ccc(-c3nc4[nH]c(O[C@H]5CO[C@H](CO)[C@@H](O)C5)nc4cc3Cl)cc2)cc1 [Example 74, Methyl (4′-(6-chloro-2-(((3R,5S,6R)-5-hydroxy-6-(hydroxymethyl)tetrahydro-2H-pyran-3-yl)oxy)-1H-imidazo[4,5-b]pyridin-5-yl)-[1,1′-biphenyl]-4-yl)carbamate]
[2]
  Emax: 460%
  EC50: 0.025 µM

## O=C(Nc1ccc(-c2ccc(-c3nc4nc(O[C@H]5CO[C@H](CO)[C@@H](O)C5)[nH]c4cc3Cl)cc2)cc1)OCC(O)CO (stereo partly shown) [Example 77]
[2]
  Emax: 494%
  EC50: 0.015 µM
